This is an account of results in BindingDB's records for doi:10.1016/j.bmcl.2008.10.099 (Bristol-Myers Squibb, 2008).

The target of the experiment is Potassium voltage-gated channel subfamily A member 5 (Homo sapiens, UniProt P22460). The experiment can be described thus: Inhibition of human Kv1.5 channel expressed in mouse L929 cells by EP voltage clamp technique.
Sequence of Potassium voltage-gated channel subfamily A member 5 (P22460 whole entry): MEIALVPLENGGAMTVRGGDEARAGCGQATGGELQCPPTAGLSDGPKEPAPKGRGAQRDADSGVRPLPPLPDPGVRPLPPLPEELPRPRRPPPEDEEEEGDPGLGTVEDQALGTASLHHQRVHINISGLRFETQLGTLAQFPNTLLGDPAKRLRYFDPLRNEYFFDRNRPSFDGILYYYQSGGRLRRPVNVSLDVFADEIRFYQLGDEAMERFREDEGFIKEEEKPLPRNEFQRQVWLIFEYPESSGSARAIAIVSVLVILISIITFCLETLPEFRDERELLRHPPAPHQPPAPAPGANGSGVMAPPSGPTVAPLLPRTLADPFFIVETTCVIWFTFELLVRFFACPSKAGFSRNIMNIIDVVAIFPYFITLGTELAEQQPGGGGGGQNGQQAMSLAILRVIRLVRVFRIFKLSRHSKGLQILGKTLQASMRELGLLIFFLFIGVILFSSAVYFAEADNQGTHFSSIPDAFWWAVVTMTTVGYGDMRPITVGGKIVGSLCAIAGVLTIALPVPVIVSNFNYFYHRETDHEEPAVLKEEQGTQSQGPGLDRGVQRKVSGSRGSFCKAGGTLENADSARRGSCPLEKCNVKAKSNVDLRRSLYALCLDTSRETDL

The compound `CC1=Nc2ccnn2C(c2sc3ccccc3c2C)C1C(=O)N1CCN(c2ccc(F)cc2)CC1` (stereo unspecified) [(4-(4-fluorophenyl)piperazin-1-yl)(5-methyl-7-(3-methylbenzo[b]thiophen-2-yl)-4,7-dihydropyrazolo[1,5-a]pyrimidin-6-yl)methanone] yielded an IC50 of 200 nM.

`CC1=Nc2ccnn2C(c2cccc(Cl)c2Cl)C1C(=O)N1CCN(c2ccc(F)cc2)CC1` (stereo unspecified) [(7-(2,3-dichlorophenyl)-5-methyl-4,7-dihydropyrazolo[1,5-a]pyrimidin-6-yl)(4-(4-fluorophenyl)piperazin-1-yl)methanone] displayed an IC50 of 160 nM.

For the compound `CC1=Nc2ccnn2C(c2cccc(Cl)c2)C1C(=O)N1CCN(c2ccc(F)cc2)CC1` (stereo unspecified) [(7-(3-chlorophenyl)-5-methyl-4,7-dihydropyrazolo[1,5-a]pyrimidin-6-yl)(4-(4-fluorophenyl)piperazin-1-yl)methanone], inhibition was half-maximal at 190 nM (IC50).

As to `CC1=Nc2ccnn2[C@H](c2cccc(Cl)c2Cl)C1C(=O)N1CCN(c2ccc(F)cc2)CC1` (stereo partly drawn) [(S)-(7-(2,3-dichlorophenyl)-5-methyl-4,7-dihydropyrazolo[1,5-a]pyrimidin-6-yl)(4-(4-fluorophenyl)piperazin-1-yl)methanone], 160 nM corresponded to half-maximal inhibition (IC50).

`CC1=Nc2ccnn2C(c2ccc(Cl)c(Cl)c2)C1C(=O)NCc1ccccc1` (stereo unspecified) [N-benzyl-7-(3,4-dichlorophenyl)-5-methyl-4,7-dihydropyrazolo[1,5-a]pyrimidine-6-carboxamide] came in with an IC50 of 160 nM.

The compound `CC1=Nc2ccnn2C(c2cc3ccccc3o2)C1C(=O)N1CCN(c2ccc(F)cc2)CC1` (stereo unspecified) [(7-(benzofuran-2-yl)-5-methyl-4,7-dihydropyrazolo[1,5-a]pyrimidin-6-yl)(4-(4-fluorophenyl)piperazin-1-yl)methanone] showed an IC50 of 160 nM.

Compound `COC[C@@H]1CCCN1C(=O)C1C(C)=Nc2ccnn2C1c1ccc(Cl)c(Cl)c1` (stereo partly drawn) [(7-(3,4-dichlorophenyl)-5-methyl-4,7-dihydropyrazolo[1,5-a]pyrimidin-6-yl)((S)-2-(methoxymethyl)pyrrolidin-1-yl)methanone] came in with an IC50 of 200 nM.

With `CCN(CC)C(=O)C1C(C)=Nc2ccnn2C1c1ccc(Cl)c(Cl)c1` (stereo unspecified) [7-(3,4-dichlorophenyl)-N,N-diethyl-5-methyl-4,7-dihydropyrazolo[1,5-a]pyrimidine-6-carboxamide], the IC50 came to 440 nM. This IC50 lies about 2.2-fold higher than the previous one.

For `CC1=Nc2ccnn2C(c2ccc(Cl)cc2)C1C(=O)N1CCN(c2ccc(F)cc2)CC1` (stereo unspecified) [(7-(4-chlorophenyl)-5-methyl-4,7-dihydropyrazolo[1,5-a]pyrimidin-6-yl)(4-(4-fluorophenyl)piperazin-1-yl)methanone], the IC50 turned out to be 440 nM.

As for `CC1=Nc2ccnn2C(c2ccc(Cl)c(Cl)c2)C1C(=O)N1CCCCCC1` (stereo unspecified) [azepan-1-yl(7-(3,4-dichlorophenyl)-5-methyl-4,7-dihydropyrazolo[1,5-a]pyrimidin-6-yl)methanone], the IC50 is 190 nM.

As to `CCCCNC(=O)C1C(C)=Nc2ccnn2C1c1ccc(Cl)c(Cl)c1` (stereo unspecified) [N-butyl-7-(3,4-dichlorophenyl)-5-methyl-4,7-dihydropyrazolo[1,5-a]pyrimidine-6-carboxamide], the IC50 was 440 nM.
